According to patent US20260285903A1, “SYNTHESIZED BIOLOGICALLY ACTIVE COMPOUNDS AND METHODS OF MAKING AND USING” (Georgia State University Research Foundation, Inc., priority 2023, published 2026):
Entries after “also recorded” stand apart in the source; their conditions may differ. Read-outs that look alike come from different tables or passages of the source.

Assays:
[1] = system: human colon cancer cells (HCT-116); settings: cited from earlier work
NF-κB signaling pathway = test: NF-κB-dependent luciferase activity in NF-κB/293/GFP-Luc cells treated with TNF-α; format: cell-based
Protocol: First, the anti-inflammatory activity of MLY compounds on the NF-κB signaling pathway was examined using the NF-xB/293/GFP-LucTnl cell line (System Biosciences). This cell line is specifically designed for use in quantitatively monitoring (by luciferase intensity) transcriptional activation related to the NF-κB signal transduction pathway in vitro. Treatment of NF-κB/293/GFP-Luc™ cells with 10 ng/ml TNF-α for 18 hours induced strong activation of the NF-κB signal transduction pathway (FIGS. 8A and 8B). […] MLY2 and MLY8 induced a strongest 90% reduction of NF-κB activation the anti-inflammatory effect of MLY 2 and 8 was dose-related (FIG. 9). The dose to reduce the NF-κB activation by 50% was […] for M13, 5 μM for MLY2 and 11 μM for MLY8 (FIG. 9).

tester TA100 = test: Ames test (bacterial reverse mutation), strain TA100; format: cell-based, Salmonella typhimurium; settings: TA100, all tested concentrations
Protocol: The mutagenic potential of M13 was assessed using the Ames test. The Ames test, or bacterial reverse mutation test, introduced by Bruce Ames and his group in the early 1970s, is currently widely employed to assess the mutagenic potential of chemical compounds. In this biological assay, several strains of Salmonella ryphimurium carrying mutations in genes responsible for histidine synthesis are used, so these strains cannot produce this critical amino acid. […]
M13 at concentrations of […] and positive (NaN3; 2-nitrofluorene (NF) and 2-amonoanthracene) and negative (PBS) controls were tested on two tester strains; TA98 reverted from histidine dependence (auxotrophy) to histidine independence (prototrophy) by frameshift mutagens and tester TA100 reverted by mutagens that cause both frameshift and base pair substitution mutations. The colony numbers on the negative, positive control and M13 treated plates were determined by manual counting. The mean number of revertants per plate, the standard deviation, and the mutation factor (i.e., mean number of revertants on the test item plate/mean number of revertants on the vehicle plate) were calculated.
Next, the mutagenic potential of M13 using a Salmonella typhimurium reverse mutation assay were assessed (Ames test). […]

SARS-CoV-2 = SARS-CoV-2 infectivity IF assay (Nucleocapsid staining) in Vero cells; format: cell-based; settings: Vero cells pre-incubated 60 minutes prior to infection, 24 hours, read-out: EC50 antiviral activity against SARS-CoV-2
Protocol: Cells were seeded in complete media at 8000 cells/100 μl/well in four plates: two for the cytotoxicity assay and two for the infectivity assay. After seeding, the plates were incubated at room temperature for 5 minutes for even distribution, and then at 37° C., 5% CO2 until the following day.
Formulations were prepared at twice the final concentration, and they were diluted to the final desired concentration by an equal volume of virus or media. The initial amounts weighted and the volume in which these were resuspended are recorded.
The prepared stocks (0.5 mg/ml) were diluted in 800 μl of infection media to twice the final drug concentration (200 μM). […]
Residual formaldehyde was quenched with 50 mM Ammonium Chloride, after which cells were permeabilized (0.1% Triton X 100) and stained with an antibody recognizing SARS-CoV2 Nucleocapsid protein (Thermo Fisher MA536271). The primary antibody was detected with an Alexa-488 conjugate secondary antibody (Life Technologies, A21207), and nuclei were stained with Hoechst. Images were acquired on a Cell-Insight CX5 high content platform (Thermo Scientific) using a 4× objective, and percentage infection calculated using CellInsight CX5 software (infected cells/total cells×100).
Normalized percentages of inhibition were calculated using the following formula: […]

[2] = Single-dose maximum tolerated dose (MTD) general toxicity study; format: in vivo, CD-1 mice
Protocol: A general toxicity study was performed by using maximum tolerated dose (MTD) of M13. Eight-week old mice were orally administered 1000 mg/kg or with PBS. On day one and day 7, mice were examined for weight loss and clinical scores were noted. Clinical signs were scored by assessing activity, appearance, and body condition for seven days.
To further determine the potential acute toxicity of M13 in vivo, a single-dose maximum tolerated dose (MTD) study of M13 was performed in CD-1 mice. Eight-week-old female mice were orally administered a single dose of M13 (1000 mg/kg) or PBS (as control) on day 0 and subjected to regular water and diet for 7 days.

[3] = CD-1 mice, single oral dose 1000 mg/kg, day 7

In the case of CCCCCC(CC(=O)CCc1ccc(O)c(OC)c1)SCC(NC(=O)CCC(N)C(=O)O)C(=O)NCC(=O)O (centres unmarked) [M13, 5-glutathione-6-shogaol], the bioactivity [1] is given as “exhibited bioactivity”, the activity at 20 µM (NF-κB signaling pathway; M13 20 μM, TNF-α 10 ng/ml, 18 hours, read-out: RLU (% with TNFα)) is given as 87.2 ± 8.29% and the activity at 50 µM (NF-κB signaling pathway; M13 50 μM, TNF-α 10 ng/ml, 18 hours, read-out: RLU (% with TNFα)) is given as 9.75 ± 2.78%. The activity at 100 µM (NF-κB signaling pathway; M13 100 μM, TNF-α 10 ng/ml, 18 hours, read-out: RLU (% with TNFα)) was 0.81 ± 0.22%, the IC50 (NF-κB signaling pathway; read-out: dose to reduce the NF-κB activation by 50%) was ~29 µM and the revertant colony numbers (tester TA100) was “did not demonstrate an increase in revertant colony numbers; also recorded: did not increase the number of revertant colonies”. For the same compound, the EC50 (SARS-CoV-2; Severe acute respiratory syndrome coronavirus 2, Vero) was ~36 µM, the EC50 (SARS-CoV-2) was 35.8 µM and the “death or differences in physiological indices” value ([2]; CD-1 mice, single oral dose 1000 mg/kg, 7 days, vs PBS) was “no significant death or differences”. For the same compound, the “body weight change, spleen-to-body weight ratio, blood physiological and biochemical indices” value [2, 3] was “no significant difference”, the “pathological signs in the anatomical organs” value [2, 3] was “no pathological signs” and the MTD at 168 h ([2]; mouse, in vivo, single-dose oral, mice) was > 1000 mg/kg. The “weight loss and clinical signs” value ([2]; oral 1000 mg/kg, seven days of observation, vs PBS) was “No significant changes” and the “white blood cell number, red blood cell number, hemoglobin levels, parameters of hepatic or renal function” value ([2]; oral 1000 mg/kg, vs PBS) was “no significant differences”.
